Assay results as given in patent US8492588B2, “Benzyloxy anilide derivatives useful as potassium channel modulators” (Valeant Pharmaceuticals International, priority 2008, dated 2013).
pEC50: −log10 of the molar value.

biological target: T1, KCNQ2/3 heteromultimers (Rattus norvegicus, UniProt O88943+O88944); experiment: Rubidium (Rb+) efflux test in PC-12 cells; format: cell-based; settings: NGF-differentiated PC-12 cells, depolarization buffer 15 mM KCl, 10 min
T1 construct: endogenous in cells; host or cells: PC-12 cells differentiated with NGF-7s; no transfection is described
Experimental: Compounds of this invention formula were evaluated for activity toward potassium channels in a cell-based Rb^+ efflux assay. This cellular bioassay is believed to faithfully represent the M current channel activities identified with KCNQ2/3 heteromultimers. […] Additionally, antiseizure activity in vivo was evaluated in a mouse maximal electroshock seizure (MES) model, and neurotoxicities were determined from a rotorod neurocognitive motor impairment model.
PC-12 cells were grown at 37° C. and 5% CO2 in DMEM/F12 Medium (Dulbecco's Modified Eagle Medium with Nutrient Mix F-12, available from Invitrogen of Carlsbad, Calif.), supplemented with 10% horse serum, 5% fetal bovine serum, 2 mM glutamine, 100 U/ml penicillin, and […] streptomycin. They were plated in poly-D-lysine-coated 96-well cell culture microplates at a density of 40,000 cells/well and differentiated with 100 ng/ml NGF-7s for 2-5 days. For the assay, the medium was aspirated, and the cells were washed once with 0.2 ml in wash buffer (25 mM HEPES, pH 7.4, 150 mM NaCl, 1 mM MgCl2; 0.8 mM NaH2PO4, 2 mM CaCl2). The cells were then loaded with 0.2 ml Rh^+ loading buffer (wash buffer plus 5.4 mM […], 5 mM glucose) and incubated at 37° C. for 2 h. Attached cells were quickly washed three times with buffer (same as Rb^+ loading buffer, but containing 5.4 mM KCl instead of RbCl) to remove extracellular Rb^+. Immediately following the wash, 0.2 ml of depolarization buffer (wash buffer plus 15 mM KCl) with or without compounds was added to the cells to activate efflux of potassium ion channels. After incubation for 10 min at room temperature, the supernatant was carefully removed and collected. Cells were lysed by the addition of 0.2 ml of lysis buffer (depolarization buffer plus 0.1% Triton X-100) and the cell lysates were also collected. If collected samples were not immediately analyzed for Rb^+ contents by atomic absorption spectroscopy (see below), they were stored at 4° C. without any negative effects on subsequent Rb^+ analysis.
The concentrations of Rb^+ in the supernatants (Rb^+Sup) and the cell lysates (Rb^+Lys) were quantified using an ICR8000 flame atomic absorption spectrometer (Aurora Biomed Inc., Vancouver, B.C.) under conditions defined by the manufacturer. Samples 0.05 ml in volume were processed automatically from microtiter plates by dilution with an equal volume of Rb^+ sample analysis buffer and injection into an air-acetylene flame. The amount of Rb^+ in the sample was measured by absorption at 780 nm using a hollow cathode lamp as light source and a PMT detector. A calibration curve covering the range 0-5 mg/L Rb^+ in sample analysis buffer was generated with each set of plates. The percent Rb^+ efflux (F) was defined by F=[Rb^+Sup/(Rb^+Sup+Rb^+Lys)]×100%. wherein the Fc is the efflux in the presence of compound in depolarization buffer, Fb is the efflux in basal buffer, and Fs is the efflux in depolarization buffer, […]. The efflux (F) and compound concentration relationship was plotted to calculate an EC50 value, a compound's concentration for 50% of maximal RV efflux. Maximal Electroshock Seizure (MES) and Acute Toxicity Tests MES Test

pEC50 | SMILES
7.30 to 8.00 | Cc1cc(OCc2cccc(Cl)c2)cc(C)c1NC(=O)CC(C)(C)C
7.30 to 8.00 | Cc1cc(OCc2cccc(C(F)(F)F)c2)cc(C)c1NC(=O)CC(C)(C)C
7.30 to 8.00 | Cc1cc(OCc2ccc(C(F)(F)F)cc2)cc(C)c1NC(=O)CC(C)(C)C
7.30 to 8.00 | Cc1cc(OCc2ccc(Br)cc2)cc(C)c1NC(=O)CC(C)(C)C
7.30 to 8.00 | Cc1cc(OCc2ccc(F)cc2)cc(C)c1NC(=O)CC(C)(C)C
7.30 to 8.00 | Cc1ccc(COc2cc(C)c(NC(=O)CC(C)(C)C)c(C)c2)cc1
7.30 to 8.00 | Cc1cc(OCc2cccc(F)c2)cc(C)c1NC(=O)CC(C)(C)C
7.30 to 8.00 | Cc1cc(OCc2ccc(Cl)cc2)cc(C)c1NC(=O)CC(C)(C)C
7.30 to 8.00 | Cc1cc(OCc2ccc(F)c(F)c2)cc(C)c1NC(=O)CC(C)(C)C
7.30 to 8.00 | Cc1cc(OCc2ccc(F)cc2F)cc(C)c1NC(=O)CC(C)(C)C

The remaining lines, values behind:

SMILES | pEC50
Cc1cc(OCc2ccc(F)cc2)cc(C)c1NC(=O)CCC1CCCC1 | 8.00 to 9.00
CCOC(=O)Nc1ccc(OCc2ccc(F)cc2)cc1C(F)(F)F | 6.30 to 7.30
CCOC(=O)Nc1ccc(OCc2ccc(F)cc2)cc1C | 6.30 to 7.30
CCOC(=O)Nc1ccc(OCc2ccc(F)cc2)cc1 | 6.30 to 7.30
Cc1cc(OCc2ccc(F)c(F)c2)cc(C)c1NC(=O)CCC1CCCC1 | 8.00 to 9.00
CCOC(=O)Nc1ccc(OCc2ccc(F)cc2)cc1F | 6.30 to 7.30
Cc1cc(OCc2ccccc2C(F)(F)F)cc(C)c1NC(=O)CC(C)(C)C | 6.30 to 7.30
